What was measured:
S. pneumoniae D39V = test: fitness (endpoint OD595 vs no drug) (fraction); higher = more growth
How it was run: (§1)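 Each well of a 384-well plate received 30 µl of culture at OD595 0.01, or 55 µl for S. pneumoniae. TSB, LB Lennox or CY served as media at 37 °C. OD595 was taken every 30 min for 14 h and corrected by subtracting the first reading. Fitness is the optical density at stationary-phase entry divided by the robust mean of no-drug controls, capped at 1.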

B. subtilis 168 = test: as above; conditions: main component drawn
How it was run: as §1

O=C(O)[C@H]1/C(=C/CO)O[C@@H]2CC(=O)N21 [Clavulanic acid] + CC[C@H]1OC(=O)[C@H](C)[C@@H](O[C@H]2C[C@@](C)(OC)[C@@H](O)[C@H](C)O2)[C@H](C)[C@@H](O[C@@H]2O[C@H](C)C[C@H](N(C)C)[C@H]2O)[C@](C)(OC)C[C@@H](C)C(=O)[C@H](C)[C@@H](O)[C@]1(C)O [Clarithromycin]
fitness, S. pneumoniae D39V, one replicate
Conditions | first compound 0.5 µg/mL | first compound 1 µg/mL | first compound 2 µg/mL
partner 0.007812 µg/mL | 0.855 | 0.828 | 0.801
partner 0.01562 µg/mL | 0.829 | 0.792 | 0.769
partner 0.03125 µg/mL | 0.597 | 0.574 | 0.509

fitness, S. pneumoniae D39V
Conditions | partner 0.0625 µg/mL | partner 0.07 µg/mL | partner 0.125 µg/mL | partner 0.14 µg/mL | partner 0.25 µg/mL | partner 0.28 µg/mL
first compound 0.5 µg/mL | 0.486 | 0.103 | 0.232 | 0.0628 | 0.0756 | 0.0401
first compound 1 µg/mL | 0.541 | 0.088 | 0.361 | 0.0781 | 0.209 | 0.0556
first compound 2 µg/mL | 0.325 | 0.0584 | 0.191 | 0.062 | 0.0711 | 0.0369

O=C(O)[C@H]1/C(=C/CO)O[C@@H]2CC(=O)N21 [Clavulanic acid] + CCC(C)C1C(=O)NC(=C)C(=O)NC(C(=O)NC(CSCC(C(=O)N1)NC(=O)/C(=C/C)/NC(=O)C(C(C)CC)N)C(=O)NC2C(SCC(NC(=O)CNC(=O)C3CCCN3C2=O)C(=O)NC(CCCCN)C(=O)NC4C(SCC(NC(=O)CNC(=O)C(NC(=O)C(NC(=O)C(NC(=O)CNC4=O)C)CC(C)C)CCSC)C(=O)NC(CC(=O)N)C(=O)NC(CCSC)C(=O)NC(CCCCN)C(=O)NC5C(SCC6C(=O)NC(C(=O)NC(CSC(C(C(=O)N6)NC(=O)C(NC5=O)C)C)C(=O)NC(CO)C(=O)NC(C(C)CC)C(=O)NC(CC7=CN=CN7)C(=O)NC(C(C)C)C(=O)NC(=C)C(=O)NC(CCCCN)C(=O)O)CC8=CN=CN8)C)C)C)CC(C)C [Nisin]
fitness, B. subtilis 168
Conditions | first compound 1.5 µg/mL | first compound 3 µg/mL | first compound 6 µg/mL
partner 0.5 µg/mL | 0.814 | 0.797 | 0.738
partner 1 µg/mL | 0.775 | 0.769 | 0.703
partner 2 µg/mL | 0.541 | 0.595 | 0.485

Conditions | fitness
B. subtilis 168, first compound 1.5 µg/mL, partner 1.25 µg/mL, one replicate | 0.802
B. subtilis 168, first compound 1.5 µg/mL, partner 1.6 µg/mL, one replicate | 0.697
B. subtilis 168, first compound 1.5 µg/mL, partner 2.5 µg/mL, one replicate | 0.537
B. subtilis 168, first compound 1.5 µg/mL, partner 3.2 µg/mL, one replicate | 0.0178
B. subtilis 168, first compound 1.5 µg/mL, partner 4 µg/mL, one replicate | 0.0192
B. subtilis 168, first compound 1.5 µg/mL, partner 5 µg/mL, one replicate | 0.0574
B. subtilis 168, first compound 1.5 µg/mL, partner 6.4 µg/mL, one replicate | 0.0673
B. subtilis 168, first compound 1.5 µg/mL, partner 8 µg/mL, one replicate | 0.0099
B. subtilis 168, first compound 1.5 µg/mL, partner 16 µg/mL, one replicate | 0.0067
B. subtilis 168, first compound 3 µg/mL, partner 1.25 µg/mL, one replicate | 0.765
B. subtilis 168, first compound 3 µg/mL, partner 1.6 µg/mL, one replicate | 0.733
B. subtilis 168, first compound 3 µg/mL, partner 2.5 µg/mL, one replicate | 0.48
B. subtilis 168, first compound 3 µg/mL, partner 3.2 µg/mL, one replicate | 0.0108
B. subtilis 168, first compound 3 µg/mL, partner 4 µg/mL, one replicate | 0.178
B. subtilis 168, first compound 3 µg/mL, partner 5 µg/mL, one replicate | 0.0615
B. subtilis 168, first compound 3 µg/mL, partner 6.4 µg/mL, one replicate | 0.0551
B. subtilis 168, first compound 3 µg/mL, partner 8 µg/mL, one replicate | 0.0036
B. subtilis 168, first compound 3 µg/mL, partner 16 µg/mL, one replicate | 0.0134
B. subtilis 168, first compound 6 µg/mL, partner 1.25 µg/mL, one replicate | 0.57
B. subtilis 168, first compound 6 µg/mL, partner 1.6 µg/mL, one replicate | 0.67
B. subtilis 168, first compound 6 µg/mL, partner 2.5 µg/mL, one replicate | 0.182
B. subtilis 168, first compound 6 µg/mL, partner 3.2 µg/mL, one replicate | 0.0221
B. subtilis 168, first compound 6 µg/mL, partner 4 µg/mL, one replicate | 0.117
B. subtilis 168, first compound 6 µg/mL, partner 5 µg/mL, one replicate | 0.0792
B. subtilis 168, first compound 6 µg/mL, partner 6.4 µg/mL, one replicate | 0.0542
B. subtilis 168, first compound 6 µg/mL, partner 8 µg/mL, one replicate | 0.0002
B. subtilis 168, first compound 6 µg/mL, partner 16 µg/mL, one replicate | 0
S. pneumoniae D39V, first compound 0.5 µg/mL, partner 0.4275 µg/mL, main component drawn | 0.973
S. pneumoniae D39V, first compound 0.5 µg/mL, partner 1.6 µg/mL, main component drawn | 0.0053
S. pneumoniae D39V, first compound 0.5 µg/mL, partner 1.71 µg/mL, main component drawn | 0.0946
S. pneumoniae D39V, first compound 0.5 µg/mL, partner 3.2 µg/mL, main component drawn | 0.0291
S. pneumoniae D39V, first compound 0.5 µg/mL, partner 6.4 µg/mL, main component drawn | 0.0063
S. pneumoniae D39V, first compound 1 µg/mL, partner 0.4275 µg/mL, main component drawn | 0.982
S. pneumoniae D39V, first compound 1 µg/mL, partner 1.6 µg/mL, main component drawn | 0.16
S. pneumoniae D39V, first compound 1 µg/mL, partner 1.71 µg/mL, main component drawn | 0.0481
S. pneumoniae D39V, first compound 1 µg/mL, partner 3.2 µg/mL, main component drawn | 0.154
S. pneumoniae D39V, first compound 1 µg/mL, partner 6.4 µg/mL, main component drawn | 0.16
S. pneumoniae D39V, first compound 2 µg/mL, partner 0.4275 µg/mL, main component drawn | 0.929
S. pneumoniae D39V, first compound 2 µg/mL, partner 0.855 µg/mL, main component drawn | 0.617
S. pneumoniae D39V, first compound 2 µg/mL, partner 1.6 µg/mL, main component drawn | 0.0042
S. pneumoniae D39V, first compound 2 µg/mL, partner 1.71 µg/mL, main component drawn | 0.0736
S. pneumoniae D39V, first compound 2 µg/mL, partner 3.2 µg/mL, main component drawn | 0.0076
S. pneumoniae D39V, first compound 2 µg/mL, partner 6.4 µg/mL, main component drawn | 0.0001

O=C(O)[C@H]1/C(=C/CO)O[C@@H]2CC(=O)N21 [Clavulanic acid] + O=C1CN(/N=C/c2ccc([N+](=O)[O-])o2)C(=O)N1 [Nitrofurantoin]
fitness, S. pneumoniae D39V
Conditions | partner 1.285 µg/mL | partner 2 µg/mL | partner 2.57 µg/mL | partner 4 µg/mL | partner 8 µg/mL
first compound 0.5 µg/mL | 0.916 | 0.92 | 0.943 | 0.878 | 0.628
first compound 1 µg/mL | 0.933 | 0.887 | 0.94 | 0.773 | 0.544
first compound 2 µg/mL | 0.883 | 0.658 | 0.874 | 0.59 | 0.358

S. pneumoniae D39V, partner 5.14 µg/mL, one replicate
Conditions | fitness
first compound 0.5 µg/mL | 0.898
first compound 1 µg/mL | 0.852
first compound 2 µg/mL | 0.817

Clc1ccc(COC(Cn2ccnc2)c2ccc(Cl)cc2Cl)c(Cl)c1 (stereo not given) [Miconazole] + Cc1ncc([N+](=O)[O-])n1CCO [Metronidazole]
fitness, S. pneumoniae D39V
Conditions | first compound 1.073 µg/mL | first compound 1.25 µg/mL | first compound 2.145 µg/mL | first compound 2.5 µg/mL | first compound 4.29 µg/mL | first compound 5 µg/mL
partner 1.073 µg/mL | – | 0.934 | – | 0.955 | – | 0.972
partner 1.25 µg/mL | ≥ 1 | – | ≥ 1 | – | 0.99 | –
partner 2.145 µg/mL | – | 0.932 | – | 0.858 | – | 0.846
partner 2.5 µg/mL | ≥ 1 | – | ≥ 1 | – | 0.888 | –
partner 4.29 µg/mL | – | 0.905 | – | 0.884 | – | 0.94
partner 5 µg/mL | ≥ 1 | – | ≥ 1 | – | 0.984 | –
